Results as given in ChEMBL document CHEMBL5505999, “Discovery of anti-inflammatory agents from 3, 4-dihydronaphthalene-1(2H)-one derivatives by inhibiting NLRP3 inflammasome activation” (Eur J Med Chem, 2024).

How the values were obtained:
RAW264.7 [1] = experiment: Anti-inflammatory activity in mouse RAW264.7 cells assessed as inhibition of LPS-induced TNF-alpha production at 10 uM pretreated with compound for 2 hrs followed by LPS addition and measured after 22 hrs by ELISA relative to control; type: functional; conditions: time 24 hrs
RAW264.7 [2] = experiment: Anti-inflammatory activity in mouse RAW264.7 cells assessed as inhibition of LPS-induced IL-6 production at 10 uM pretreated with compound for 2 hrs followed by LPS addition and measured after 22 hrs by ELISA relative to control; type: functional; conditions: time 24 hrs
RAW264.7 [3] = experiment: Anti-inflammatory activity in mouse RAW264.7 cells assessed as inhibition of LPS-induced TNF-alpha production at 2.5 uM pretreated with compound for 2 hrs followed by LPS addition and measured after 22 hrs by ELISA relative to control; type: functional; conditions: time 24 hrs
[4] = Cytotoxicity against mouse RAW264.7 cells assessed as survival rate at 2.5 uM incubated overnight by CCK-8 assay relative to control; type: toxicity, cell-based; conditions: read-out: Survival
RAW264.7 [5] = experiment: Anti-inflammatory activity in mouse RAW264.7 cells assessed as inhibition of LPS-induced IL-6 production at 2.5 uM pretreated with compound for 2 hrs followed by LPS addition and measured after 22 hrs by ELISA relative to control; type: functional; conditions: time 24 hrs

| Structure (SMILES) | inhibition at 10 µM (RAW264.7 [1]) [%] | inhibition at 10 µM (RAW264.7 [2]) [%] | inhibition at 2.5 µM (RAW264.7 [3]) [%] | viability at 2.5 µM [4] [%] | inhibition at 2.5 µM (RAW264.7 [5]) [%] |
| --- | --- | --- | --- | --- | --- |
| S=C(S)N1CCCC1 [PYRROLIDINE DITHIOCARBAMATE] | 36 | 48 | – | – | – |
| COc1ccc2c(c1)CC/C(=C\c1ccc(N3CCOCC3)nc1)C2=O | – | – | 45 | 96 | 59.2 |
| O=C1/C(=C/c2ccc(-n3ccnc3)cc2)CCc2cc(F)ccc21 | – | – | 39.4 | 80.7 | 54.9 |
| O=C1/C(=C/c2ccc(N3CCOCC3)cc2)CCc2ccc(O)cc21 | – | – | 32.3 | 81.6 | 48.9 |
| COc1ccc2c(c1)CC/C(=C\c1ccc(N3CCN(C)CC3)cc1)C2=O | – | – | 34.6 | 91.3 | 50.9 |
| O=C1/C(=C/c2ccc(N3CCOCC3)cc2)CCc2ccc(F)cc21 | – | – | 29.5 | 82.7 | 46.2 |
| CN1CCN(c2ccc(/C=C3\CCc4ccc(Br)cc4C3=O)cn2)CC1 | – | – | 51 | 104 | 63.4 |
| O=C1/C(=C/c2ccc(N3CCOCC3)nc2)CCc2cc(Br)ccc21 | – | – | 31.4 | 86.2 | 47.5 |
| CN1CCN(c2ccc(/C=C3\CCc4cc(Br)ccc4C3=O)nc2)CC1 | – | – | 40.6 | 96.8 | 55.9 |
| CN1CCN(c2ccc(/C=C3\CCc4cc(F)ccc4C3=O)cn2)CC1 | – | – | 32.8 | 98.2 | 49.3 |
| CN1CCN(c2ccc(/C=C3\CCc4ccc(F)cc4C3=O)cn2)CC1 | – | – | 35.3 | 88.7 | 51.6 |
| CN1CCN(c2ccc(/C=C3\CCc4cc(F)ccc4C3=O)cc2)CC1 | – | – | 37.1 | 90.5 | 48.4 |
| COc1ccc2c(c1)C(=O)/C(=C/c1ccc(N3CCN(C)CC3)cc1)CC2 | – | – | 33.6 | 98 | 50.1 |
| COc1ccc2c(c1)C(=O)/C(=C/c1ccc(N3CCOCC3)cc1)CC2 | – | – | 30.5 | 82.2 | 47.2 |
| O=C1/C(=C/c2ccc(N3CCOCC3)nc2)CCc2ccc(Br)cc21 | – | – | 23.8 | 96.2 | 36.1 |
| COc1ccc2c(c1)CC/C(=C\c1ccc(-n3ccnc3)cc1)C2=O | – | – | 31.7 | 92.8 | 48.2 |
